Test results taken from patent US20070140972A1, “Targeting compositions and preparation therof” (CTT CANSER TARGETING TECHNOLOGIES OY, priority 2003, published 2007).
Where a SMILES comes first, the peptide text is derived from it.

Key:
[1] = tested on: human ovarian carcinoma tumours (OV-90); experiment: Biodistribution of I-125 labelled 6F-Trp CTT2 peptide in OV-90 tumour mice (gamma counting); type: in vivo; settings: 30 min and 180 min; clearance comparable to blood
Protocol: FIG. 8. The biodistribution study of I-125 labelled 6F-Trp CTT2 ([…][6-fluoro]WGFTLC)-peptide. The in vivo biodistribution of the ^125I-labeled peptide was assessed at two time points in NMRI/nude mice carrying human ovarian tumours on their lower back. Results are expressed as percentage of injected dose per 1 g tissue (% ID/1 g). All values are indicated as mean±SD of 5 mice.
The 6F-Trp CTT2 peptide was used in biodistribution study to evaluate its kinetic and tumour targeting properties. The study was performed in mice with established human ovarian carcinoma tumours (OV-90). The 6F-Trp CTT2 peptide was labelled with iodine-125. 40 μg of purified and labelled peptide (˜1 MBq) was injected into the tail vein of mice. 30 min and 180 min after peptide injection mice were sacrificed and blood and tissue samples were collected. The accumulated radioactivity was determined with gamma counter.

[2] = Serum stability of CTT2 derivative; type: in vitro ADME; settings: versus wild type CTT2 peptide
tumour cell migration = experiment: Inhibition of tumour cell migration; type: cell-based; settings: versus wild type CTT2 peptide
A2780 cells = experiment: Therapeutic efficacy (survival) in A2780 xenograft mice; type: in vivo, NMRI nude female mice; settings: three injections in three-day intervals; sacrificed when tumour exceeded 1000 mm^3
Protocol: A2780 cells were injected subcutaneously into the posterior flanks of 50 NMRI nude female mice. The mice were randomly allocated into five treatment groups. […] In this study, the mice received three drug injections of 9 mg liposomal or free doxorubicin/kg in three-day intervals.
The mice were weighed and their tumour sizes were measured twice a week after treatment initiation. When tumour sizes exceeded 1000 mm^3 the mice were sacrificed.

| SMILES | accumulation of radioactivity in all other organs [1] | serum stability in comparison to the wild type peptide [2] | ability to inhibit tumour cell migration in comparison to the wild type peptide (tumour cell migration) | survival status by five weeks after treatment initiation (A2780 cells) |
| --- | --- | --- | --- | --- |
| CC(C)C[C@@H]1NC(=O)[C@H]([C@@H](C)O)NC(=O)[C@H](Cc2ccccc2)NC(=O)CNC(=O)C(Cc2c[nH]c3cc(F)ccc23)NC(=O)[C@H](Cc2c[nH]cn2)NC(=O)[C@H]([C@@H](C)O)NC(=O)[C@H]([C@@H](C)O)NC(=O)[C@@H](NC(=O)CNC(=O)[C@H](Cc2c[nH]cn2)NC(=O)[C@H](Cc2ccc(O)cc2)NC(=O)[C@H](CC(N)=O)NC(=O)[C@H](CCC(=O)O)NC(=O)[C@H](CCCNC(=N)N)NC(=O)CN)CSSC[C@@H](C(N)=O)NC1=O (stereo partly drawn) [6F-Trp CTT2, GRENYHG-Cyclo(CTTH(d,l-6-Fluoro-W)GFTLC)-NH2] (HELM PEPTIDE1{G.R.E.N.Y.H.G.C.T.T.H.[O=C(C(Cc1c[nH]c2cc(F)ccc12)N[*:1])[*:2]].G.F.T.L.C.[am]}$PEPTIDE1,PEPTIDE1,8:R3-17:R3$$$V2.0; N-terminus assumed) | negligible | enhancement in serum stability | improved ability to inhibit tumour cell migration |  |
| COc1cccc2c1C(=O)c1c(O)c3c(c(O)c1C2=O)C[C@@](O)(C(=O)CO)C[C@@H]3O[C@H]1C[C@H](N)[C@H](O)[C@H](C)O1 [free doxorubicin, doxorubicin] |  |  |  | had been sacrificed |
